Among the data in patent US9079902B2, “Heteroaryl sodium channel inhibitors” (AMGEN INC., priority 2011, dated 2015) are IC50 and inhibition values, retold here.

The target of one series is Nav 1.5 (Homo sapiens (Human), UniProt Q14524). Description: Nav 1.5 in vitro assay (IonWorks Quattro population patch-clamp). The series is classed as cell-based. Conditions: 293 cells stably transfected with Nav 1.5; 26th pulse to -20 mV, 5 Hz. How it is done: (§1) Nav 1.7 and Nav 1.5 In Vitro Assay
(§2) 293 cells stably transfected with either Nav 1.7 or with Nav 1.5 were recorded in population patch-clamp mode with the IonWorks® Quattro automated electrophysiology system in accordance with the manufacturer's specifications (Molecular Devices, LLC, Sunnyvale, Calif.). Sodium channel currents were measured in response to a train of depolarizations that induced successively greater inactivation.
(§3) Cells were held at −110 mV for three seconds (Nav 1.7) or half a second (Nav 1.5) from a holding voltage of −15 mV, then put through a series of 26 pulses of 150 msec duration to −20 mV at a frequency of 5 Hz. Cells were then left unclamped for a period of 3 to 8 minutes while a single concentration of test compound was added. Cells were then reclamped and put through the same voltage protocol. Current at the end of the 26th pulse to −20 mV was subtracted from the peak current evoked by the 26th pulse to −20 mV to correct for leak current. Percent block was calculated for each concentration in duplicate, and IC50 curves were fitted to percent block as a function of concentration.
Background: In patch-clamp work, channel activity is measured electrically.

The target of the next series is Nav 1.7 (Homo sapiens (Human), UniProt Q15858). Nature of the series: Nav 1.7 in vitro assay (IonWorks Quattro population patch-clamp). Format: cell-based. Conditions: 293 cells stably transfected with Nav 1.7; for IC50: 26th pulse to -20 mV, 5 Hz; for inhibition at 4.9 µM: HEK293. How it is done:
as §1, §2, §3

Bounds are passed on as bounds.

What is called IC50 is the midpoint of a concentration-inhibition curve. As a reminder, the inhibition is the change of the read-out against control, counted positive when it falls. A lower inhibition goes with little suppression.

Chain of Nav 1.5 (Q14524 whole entry): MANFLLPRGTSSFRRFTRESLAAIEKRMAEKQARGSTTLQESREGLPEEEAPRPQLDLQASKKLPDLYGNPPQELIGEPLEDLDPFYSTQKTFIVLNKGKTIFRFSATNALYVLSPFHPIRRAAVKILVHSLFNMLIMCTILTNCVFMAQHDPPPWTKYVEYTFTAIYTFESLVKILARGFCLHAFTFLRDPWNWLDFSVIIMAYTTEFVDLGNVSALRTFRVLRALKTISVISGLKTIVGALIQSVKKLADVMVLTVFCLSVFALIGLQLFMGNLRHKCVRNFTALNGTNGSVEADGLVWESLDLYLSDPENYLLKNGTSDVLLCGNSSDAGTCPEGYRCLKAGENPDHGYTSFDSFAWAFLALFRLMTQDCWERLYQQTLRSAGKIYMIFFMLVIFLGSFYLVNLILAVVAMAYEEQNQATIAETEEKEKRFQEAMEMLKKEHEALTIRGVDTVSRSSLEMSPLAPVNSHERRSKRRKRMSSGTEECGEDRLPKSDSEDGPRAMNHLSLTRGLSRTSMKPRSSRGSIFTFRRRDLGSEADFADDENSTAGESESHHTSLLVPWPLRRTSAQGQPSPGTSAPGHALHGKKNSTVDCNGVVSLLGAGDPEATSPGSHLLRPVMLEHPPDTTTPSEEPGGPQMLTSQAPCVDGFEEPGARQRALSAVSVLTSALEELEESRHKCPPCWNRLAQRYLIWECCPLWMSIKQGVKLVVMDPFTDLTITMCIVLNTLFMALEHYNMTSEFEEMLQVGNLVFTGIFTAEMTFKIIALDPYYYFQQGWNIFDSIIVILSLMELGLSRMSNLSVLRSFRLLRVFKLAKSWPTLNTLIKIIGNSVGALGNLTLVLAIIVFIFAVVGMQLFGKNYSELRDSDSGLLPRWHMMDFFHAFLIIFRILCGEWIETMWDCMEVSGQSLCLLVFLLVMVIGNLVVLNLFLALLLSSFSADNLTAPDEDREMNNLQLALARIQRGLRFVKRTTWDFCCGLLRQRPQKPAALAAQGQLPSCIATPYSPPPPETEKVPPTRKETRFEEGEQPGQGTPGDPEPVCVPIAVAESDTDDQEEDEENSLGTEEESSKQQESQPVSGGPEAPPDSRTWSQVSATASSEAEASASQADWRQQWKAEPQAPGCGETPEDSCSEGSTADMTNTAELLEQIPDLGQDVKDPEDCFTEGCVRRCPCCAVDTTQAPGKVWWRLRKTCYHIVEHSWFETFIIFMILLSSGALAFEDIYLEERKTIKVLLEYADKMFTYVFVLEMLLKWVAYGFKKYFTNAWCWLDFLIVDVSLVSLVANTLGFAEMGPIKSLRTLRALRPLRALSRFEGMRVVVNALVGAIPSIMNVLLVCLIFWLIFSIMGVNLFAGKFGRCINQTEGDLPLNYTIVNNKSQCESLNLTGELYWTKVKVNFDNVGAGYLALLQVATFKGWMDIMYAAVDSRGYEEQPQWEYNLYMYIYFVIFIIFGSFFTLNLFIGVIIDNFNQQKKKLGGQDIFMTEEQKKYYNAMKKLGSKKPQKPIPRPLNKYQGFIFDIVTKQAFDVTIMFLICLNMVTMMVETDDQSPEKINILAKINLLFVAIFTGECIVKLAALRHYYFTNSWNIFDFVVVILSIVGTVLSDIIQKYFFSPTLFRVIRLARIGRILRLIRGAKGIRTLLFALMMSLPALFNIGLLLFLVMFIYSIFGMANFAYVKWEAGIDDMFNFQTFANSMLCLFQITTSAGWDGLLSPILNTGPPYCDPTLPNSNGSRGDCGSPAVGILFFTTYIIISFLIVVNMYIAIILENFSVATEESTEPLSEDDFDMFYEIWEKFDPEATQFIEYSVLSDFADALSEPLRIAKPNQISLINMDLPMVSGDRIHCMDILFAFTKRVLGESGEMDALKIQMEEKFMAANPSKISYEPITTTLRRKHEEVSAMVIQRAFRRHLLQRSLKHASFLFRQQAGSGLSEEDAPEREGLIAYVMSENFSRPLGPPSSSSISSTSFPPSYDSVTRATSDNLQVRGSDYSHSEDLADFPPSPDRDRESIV
Chain of Nav 1.7 (Q15858 whole entry): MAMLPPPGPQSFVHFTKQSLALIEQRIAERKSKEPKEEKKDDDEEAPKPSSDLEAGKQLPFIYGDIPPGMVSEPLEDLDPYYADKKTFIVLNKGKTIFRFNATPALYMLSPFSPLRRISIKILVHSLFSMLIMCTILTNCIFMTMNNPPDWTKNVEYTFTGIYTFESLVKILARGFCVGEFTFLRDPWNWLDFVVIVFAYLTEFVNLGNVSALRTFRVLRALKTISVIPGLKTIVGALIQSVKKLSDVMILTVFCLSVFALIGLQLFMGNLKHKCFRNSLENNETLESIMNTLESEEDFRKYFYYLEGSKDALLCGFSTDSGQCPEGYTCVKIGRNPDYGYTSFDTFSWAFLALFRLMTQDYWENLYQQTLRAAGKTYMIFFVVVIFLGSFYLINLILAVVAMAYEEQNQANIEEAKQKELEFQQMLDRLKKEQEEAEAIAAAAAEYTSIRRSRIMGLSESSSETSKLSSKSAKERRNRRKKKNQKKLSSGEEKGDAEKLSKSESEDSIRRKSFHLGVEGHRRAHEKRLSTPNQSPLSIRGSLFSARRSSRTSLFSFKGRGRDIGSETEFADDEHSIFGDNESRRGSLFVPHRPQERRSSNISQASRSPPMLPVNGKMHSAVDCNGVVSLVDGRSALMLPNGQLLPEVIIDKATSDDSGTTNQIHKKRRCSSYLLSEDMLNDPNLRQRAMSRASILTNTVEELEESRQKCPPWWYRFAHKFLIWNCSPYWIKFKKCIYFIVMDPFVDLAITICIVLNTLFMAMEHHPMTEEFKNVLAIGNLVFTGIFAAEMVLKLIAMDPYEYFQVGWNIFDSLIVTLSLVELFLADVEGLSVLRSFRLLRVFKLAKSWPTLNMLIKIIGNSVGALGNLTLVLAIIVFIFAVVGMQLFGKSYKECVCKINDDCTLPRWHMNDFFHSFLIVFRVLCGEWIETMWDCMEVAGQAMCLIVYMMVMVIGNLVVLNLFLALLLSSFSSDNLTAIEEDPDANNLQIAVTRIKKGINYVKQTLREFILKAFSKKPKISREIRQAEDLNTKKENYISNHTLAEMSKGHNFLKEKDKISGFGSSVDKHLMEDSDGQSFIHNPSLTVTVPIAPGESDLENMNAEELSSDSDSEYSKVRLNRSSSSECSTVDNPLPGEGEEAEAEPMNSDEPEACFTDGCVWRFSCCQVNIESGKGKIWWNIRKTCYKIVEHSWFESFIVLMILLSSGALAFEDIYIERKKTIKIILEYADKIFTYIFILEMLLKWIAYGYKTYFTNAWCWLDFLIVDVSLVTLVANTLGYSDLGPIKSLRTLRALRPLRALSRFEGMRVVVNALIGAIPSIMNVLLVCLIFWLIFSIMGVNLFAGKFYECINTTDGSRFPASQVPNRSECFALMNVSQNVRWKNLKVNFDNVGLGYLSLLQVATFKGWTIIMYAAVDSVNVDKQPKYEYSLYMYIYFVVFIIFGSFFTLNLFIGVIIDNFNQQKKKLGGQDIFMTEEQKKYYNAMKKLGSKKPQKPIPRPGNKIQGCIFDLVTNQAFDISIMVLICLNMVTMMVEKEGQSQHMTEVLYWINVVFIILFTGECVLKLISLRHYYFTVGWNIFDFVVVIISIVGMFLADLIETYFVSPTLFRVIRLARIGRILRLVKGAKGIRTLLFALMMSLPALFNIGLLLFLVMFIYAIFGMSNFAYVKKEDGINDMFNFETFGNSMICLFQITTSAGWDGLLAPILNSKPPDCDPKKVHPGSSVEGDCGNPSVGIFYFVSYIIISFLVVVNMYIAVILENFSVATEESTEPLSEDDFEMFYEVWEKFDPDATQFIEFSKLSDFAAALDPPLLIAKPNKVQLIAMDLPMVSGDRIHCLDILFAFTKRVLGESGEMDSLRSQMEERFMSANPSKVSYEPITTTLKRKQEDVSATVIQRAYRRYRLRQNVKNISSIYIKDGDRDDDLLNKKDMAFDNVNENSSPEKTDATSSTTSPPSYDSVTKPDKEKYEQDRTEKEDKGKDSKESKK

As for `COc1ccc(-c2cn(C)c3cc(S(=O)(=O)Nc4ncns4)ccc23)c2ccccc12` [Example 40, 3-(4-Methoxynaphthalen-1-yl)-1-Methyl-N-(1,2,4-Thiadiazol-5-yl)-1H-Indole-6-Sulfonamide], on Nav 1.5, the IC50 is over 10 µM.
Consider `COc1cc(OC)cc(-c2cn(C)c3cc(S(=O)(=O)Nc4ncns4)ccc23)c1` [Example 29, 3-(3,5-Dimethoxyphenyl)-1-Methyl-N-(1,2,4-Thiadiazol-5-yl)-1H-Indole-6-Sulfonamide], for which the 50% inhibitory concentration (IC50) at Nav 1.5 is over 10 µM.
As for `CC(C)n1cc(-c2ccc(C(F)(F)F)cc2-c2ccnn2C)c2ccc(S(=O)(=O)Nc3ncns3)cc21` [Example 3, 1-Isopropyl-3-(2-(1-Methyl-1H-Pyrazol-5-yl)-4-(Trifluoromethyl)Phenyl)-N-(1,2,4-Thiadiazol-5-yl)-1H-Indole-6-Sulfonamide], the concentration for half-maximal inhibition (IC50) on Nav 1.7 is 1.93 µM; on Nav 1.5, over 10 µM.
At Nav 1.5, `Cc1cnc(N)c(-c2cn(C)c3cc(S(=O)(=O)Nc4ncns4)ccc23)c1` [Example 45, 3-(2-Amino-5-Methylpyridin-3-yl)-1-Methyl-N-(1,2,4-Thiadiazol-5-yl)-1H-Indole-6-Sulfonamide] displayed an IC50 of over 10 µM.
Regarding `Cn1nccc1-c1cc(C(F)(F)F)ccc1-n1cnc2cc(S(=O)(=O)Nc3ncns3)ccc21` [Example 63, 1-(2-(1-Methyl-1H-Pyrazol-5-Yl)-4-(Trifluoromethyl)Phenyl)-N-(1,2,4-Thiadiazol-5-Yl)-1H-Benzo[D]Imidazole-5-Sulfonamide], the 50% inhibitory concentration (IC50) on Nav 1.7 was 1.13 µM; on Nav 1.5, over 10 µM.
On to `CC(=O)n1cc(-c2ccc(C(F)(F)F)cc2-c2ccnn2C)c2ccc(S(=O)(=O)Nc3ncns3)nc21` [Example 27, 1-Acetyl-3-(2-(1-Methyl-1H-Pyrazol-5-yl)-4-(Trifluoromethyl)Phenyl)-N-(1,2,4-Thiadiazol-5-yl)-1H-Pyrrolo [2,3-B]Pyridine-6-Sulfonamide], for which the results for the IC50 against Nav 1.7 and on Nav 1.5 were 0.674 µM and over 10 µM, respectively.
`Cn1cc(-c2cccc3ncccc23)c2ccc(S(=O)(=O)Nc3ncns3)cc21` [Example 38, 1-Methyl-3-(Quinolin-5-yl)-N-(1,2,4-Thiadiazol-5-yl)-1H-Indole-6-Sulfonamide]: at Nav 1.5, the IC50 is over 10 µM.
In turn, `Cn1cc(-c2ccccc2OC(F)(F)F)c2ccc(S(=O)(=O)Nc3ncns3)cc21` [Example 58, 1-Methyl-N-(1,2,4-Thiadiazol-5-Yl)-3-(2-(Trifluoromethoxy)Phenyl)-1H-Indole-6-Sulfonamide] returned an inhibition at 4.9 µM on Nav 1.7 of 25.1%. Further, the half-inhibitory concentration (IC50) against Nav 1.5 was over 10 µM.
`COc1cc(F)ccc1-c1cn(C)c2cc(S(=O)(=O)Nc3ncns3)ccc12` [Example 28, 3-(4-FLUORO-2-METHOXYPHENYL)-1-METHYL-N-(1,2,4-Thiadiazol-5-yl)-1H-Indole-6-Sulfonamide] showed an IC50 at Nav 1.5 of over 10 µM.
For the compound `Cn1cc(-c2ccc(C(F)(F)F)cc2-c2cn[nH]c2)c2ccc(S(=O)(=O)Nc3ncns3)cc21` [Example 21, 3-(2-(1H-Pyrazol-4-yl)-4-(Trifluoromethyl)Phenyl)-1-Methyl-N-(1,2,4-Thiadiazol-5-yl)-1H-Indole-6-Sulfonamide], the IC50 against Nav 1.7 was 0.0375 µM; on Nav 1.5, over 10 µM.
For the compound `COc1ccc(-c2cn(C)c3cc(S(=O)(=O)Nc4ncns4)ccc23)c(Cl)c1` [Example 41, 3-(2-Chloro-4-Methoxyphenyl)-1-Methyl-N-(1,2,4-Thiadiazol-5-yl)-1H-Indole-6-Sulfonamide], the IC50 at Nav 1.5 was over 10 µM.
Compound `Cn1cc(-c2cnn(C3CC3)c2)c2ccc(S(=O)(=O)Nc3ncns3)cc21` [Example 55, 3-(1-Cyclopropyl-1H-Pyrazol-4-Yl)-1-Methyl-N-(1,2,4-Thiadiazol-5-Yl)-1H-Indole-6-Sulfonamide] displayed an inhibition at 4.9 µM against Nav 1.7 of 20.5%. Also, at Nav 1.5, the IC50 is over 10 µM.
The compound `Cc1noc(C)c1-c1cn(C)c2cc(S(=O)(=O)Nc3ncns3)ccc12` [Example 42, 3-(3,5-Dimethylisoxazol-4-yl)-1-Methyl-N-(1,2,4-Thiadiazol-5-yl)-1H-Indole-6-Sulfonamide] gave a 50% inhibitory concentration (IC50) against Nav 1.5 of over 10 µM.
For `Cn1nccc1-c1cn(C)c2cc(S(=O)(=O)Nc3ncns3)ccc12` [Example 52, 1-Methyl-3-(1-Methyl-1H-Pyrazol-5-Yl)-N-(1,2,4-Thiadiazol-5-Yl)-1H-Indole-6-Sulfonamide], the concentration for half-maximal inhibition (IC50) against Nav 1.5 is over 10 µM.
On to `Cn1nccc1-c1cc(C(F)(F)F)ccc1-c1c[nH]c2cc(S(=O)(=O)Nc3ncns3)ccc12` [Example 5, 3-(2-(1-Methyl-1H-Pyrazol-5-yl)-4-(Trifluoromethyl)Phenyl)-N-(1,2,4-Thiadiazol-5-yl)-1H-Indole-6-Sulfonamide], for which the IC50 against Nav 1.7 was 0.724 µM; on Nav 1.5, over 10 µM.
With `Cn1cc(-c2ccc(C(F)(F)F)cc2Cl)c2ccc(S(=O)(=O)Nc3ncns3)cc21` [Example 23, 3-(2-Chloro-4-(Trifluoromethyl)Phenyl)-1-Methyl-N-(1,2,4-Thiadiazol-5-yl)-1H-Indole-6-Sulfonamide], the IC50 at Nav 1.7 was 0.687 µM; on Nav 1.5, over 10 µM.
`COc1ccc(-c2cn(C)c3cc(S(=O)(=O)Nc4ncns4)ccc23)c(OC)c1` [Example 36, 3-(2,4-Dimethoxyphenyl)-1-Methyl-N-(1,2,4-Thiadiazol-5-yl)-1H-Indole-6-Sulfonamide] gave a half-inhibitory concentration (IC50) at Nav 1.5 of over 10 µM.
For the compound `COc1ccc(-c2cn(C)c3cc(S(=O)(=O)Nc4ncns4)ccc23)cc1C(F)(F)F` [Example 49, 3-(4-Methoxy-3-(Trifluoromethyl)Phenyl)-1-Methyl-N-(1,2,4-Thiadiazol-5-Yl)-1H-Indole-6-Sulfonamide], the IC50 at Nav 1.5 is over 10 µM.
At Nav 1.5, `Cn1cc(-c2ccc(Br)cc2C(F)(F)F)c2ccc(S(=O)(=O)Nc3ncns3)cc21` [Example 43, 3-(4-Bromo-2-(Trifluoromethyl)Phenyl)-1-Methyl-N-(1,2,4-Thiadiazol-5-yl)-1H-Indole-6-Sulfonamide] gave a concentration for half-maximal inhibition (IC50) of over 10 µM.
The same measure, in the same setting: the result for `Cn1cc(-c2cccc(S(C)(=O)=O)c2)c2ccc(S(=O)(=O)Nc3ncns3)cc21` [Example 39, 1-Methyl-3-(3-(Methylsulfonyl)Phenyl)-N-(1,2,4-Thiadiazol-5-yl)-1H-Indole-6-Sulfonamide] reads over 10 µM; that for `Cn1cc(-c2ccc(C#N)c(F)c2)c2ccc(S(=O)(=O)Nc3ncns3)cc21` [Example 31, 3-(4-Cyano-3-Fluorophenyl)-1-Methyl-N-(1,2,4-Thiadiazol-5-yl)-1H-Indole-6-Sulfonamide], over 10 µM; that for `Cn1cc(-c2ccc(OC(F)(F)F)cc2)c2ccc(S(=O)(=O)Nc3ncns3)cc21` [Example 32, 1-Methyl-N-(1,2,4-Thiadiazol-5-yl)-3-(4-(Trifluoromethoxy)Phenyl)-1H-Indole-6-Sulfonamide], over 10 µM.
The same measure, in the same setting: with `Cn1cc(-c2ccccc2C(F)(F)F)c2ccc(S(=O)(=O)Nc3ncns3)cc21` [Example 44, 1-Methyl-N-(1,2,4-Thiadiazol-5-yl)-3-(2-(Trifluoromethyl)Phenyl)-1H-Indole-6-Sulfonamide] the figure was over 10 µM; with `Cn1cc(-c2cccc(C#N)c2)c2ccc(S(=O)(=O)Nc3ncns3)cc21` [Example 34, 3-(3-Cyanophenyl)-1-Methyl-N-(1,2,4-Thiadiazol-5-yl)-1H-Indole-6-Sulfonamide], over 10 µM; with `Cn1cc(-c2ccc(F)c(C#N)c2)c2ccc(S(=O)(=O)Nc3ncns3)cc21` [Example 30, 3-(3-Cyano-4-Fluorophenyl)-1-Methyl-N-(1,2,4-Thiadiazol-5-yl)-1H-Indole-6-Sulfonamide], 7.63 µM.
As for `Cn1cc(-c2ccccc2)c2ccc(S(=O)(=O)Nc3ncns3)cc21` [Example 35, 1-Methyl-3-Phenyl-N-(1,2,4-Thiadiazol-5-yl)-1H-Indole-6-Sulfonamide], at Nav 1.5, the concentration for half-maximal inhibition (IC50) is over 10 µM.
Same read-out and setting: the result for `Cc1cc(C#N)ccc1-c1cn(C)c2cc(S(=O)(=O)Nc3ncns3)ccc12` [Example 46, 3-(4-Cyano-2-Methylphenyl)-1-Methyl-N-(1,2,4-Thiadiazol-5-yl)-1H-Indole-6-Sulfonamide] reads over 10 µM.
Compound `CN(C)c1cccc(-c2cn(C)c3cc(S(=O)(=O)Nc4ncns4)ccc23)c1` [Example 47, 3-(3-(Dimethylamino)Phenyl)-1-Methyl-N-(1,2,4-Thiadiazol-5-yl)-1H-Indole-6-Sulfonamide] returned a half-inhibitory concentration (IC50) at Nav 1.5 of over 10 µM.
Consider `Cn1cc(-c2ccc(C(F)(F)F)c(Cl)c2)c2ccc(S(=O)(=O)Nc3ncns3)cc21` [Example 24, 3-(3-Chloro-4-(Trifluoromethyl)Phenyl)-1-Methyl-N-(1,2,4-Thiadiazol-5-yl)-1H-Indole-6-Sulfonamide], for which, at Nav 1.5, the IC50 is over 10 µM.
Same read-out and setting: with `Cn1cc(-c2cccc(OC(F)(F)F)c2)c2ccc(S(=O)(=O)Nc3ncns3)cc21` [Example 33, 1-Methyl-N-(1,2,4-Thiadiazol-5-yl)-3-(3-(Trifluoromethoxy)Phenyl)-1H-Indole-6-Sulfonamide] the figure was over 10 µM; with `Cn1cc(-c2cccc3ccccc23)c2ccc(S(=O)(=O)Nc3ncns3)cc21` [Example 37, 1-Methyl-3-(Naphthalen-1-yl)-N-(1,2,4-Thiadiazol-5-yl)-1H-Indole-6-Sulfonamide], over 10 µM; with `Cn1cc(-c2cccc(C(F)(F)F)c2)c2ccc(S(=O)(=O)Nc3ncns3)cc21` [Example 48, 1-Methyl-N-(1,2,4-Thiadiazol-5-yl)-3-(3-(Trifluoromethyl)Phenyl)-1H-Indole-6-Sulfonamide], over 10 µM.
